One data set deals with Aβ in lumbar CSF. The note with it: Ph I clinical trial; cited from earlier work.
Another data set has as its target T1, Cathepsin D (Cat D) (Homo sapiens, UniProt P07339).
T1 construct: Recombinant Cat D was expressed in CHO cells; made in house; host or cells: CHO cells
In words: In vitro enzymatic Cathepsin D (Cat D) FRET assay. In kind it is biochemical. The note with it: read-out: CatD IC50. The method in brief: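 FRET read-out: a fluorophore/quencher-labelled peptide substrate is cleaved by 9 nM Cat D (recombinant, CHO-expressed) following a one-hour preincubation with inhibitor dilutions in DMSO. Tris buffer added to neutralize pH ends the reaction before fluorescence measurement.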

For data set [1], the system named is Abeta 40 in cerebrospinal fluid (CSF) and brain. The experiment in a line: In vivo inhibition of beta-secretase: Abeta 40 reduction in CSF and brain of the rat. The note with it: 10 mpk (unless otherwise noted), after 4 hrs. From the text:
In Vivo Inhibition of Beta-Secretase
Several animal models, including mouse, rat, dog, and monkey, may be used to screen for inhibition of beta-secretase activity in vivo following administration of a test compound sample. Animals used in this invention can be wild type, transgenic, or gene knockout animals. […] One to twenty-four hours following the administration of compound, animals are sacrificed, and brains as well as cerebrospinal fluid (CSF) and plasma are removed for analysis of A-beta levels and drug or test compound concentrations (Dovey et al., 2001, Journal of Neurochemistry, 76, 173-181) Beginning at time 0, animals are administered by oral gavage, or other means of delivery such as intravenous injection, an inhibitory test compound of up to 100 mg/kg in a standard, conventional formulation, such as 2% hydroxypropyl methylcellulose, 1% Tween80. A separate group of animals receive 2% hydroxypropyl methylcellulose, 1% Tween80 alone, containing no test compound, and serve as a vehicle-control group. […] CSF or brain supernatants are then analyzed for the presence of A-beta peptide by specific sandwich ELISA assays based on ECL (Electrochemiluminescence) technology. For example, rat Abeta40 is measured using biotinylated-4G8 (Signet) as a capture antibody and Fab40 (an in-house antibody specific to the C-terminal of Abeta40) as a detection antibody.

The test system of data set [2] is Aβ40 in conditioned medium of cells stably expressing Amyloid Precursor Protein (APP). In words: In vitro BACE cell-based assay (HEK cell assay), Aβ40 sandwich ELISA. The note with it: Homo sapiens, HEK293. Summed up:
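Aβ40 in conditioned medium was quantified by time-resolved fluorescence sandwich ELISA (pAb40 capture 3 h at 4 °C, biotin-6E10 detection 2 h at 4 °C) after 24 h compound exposure of APP-expressing cells. Doses spanned 10 points from 100 μM or 10 μM top, 0.1% DMSO; IC50 was derived from percent of control.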

The conditions of data set [3]: people brought in after termination of the Ph I dosing trial; cited from earlier work.
Data set [4] relates to pigment epithelium of the rat's eye. The note with it: higher compound dose given for three months; cited from earlier work.
Data set [5] deals with Beta Secretase enzyme (BACE1) (Homo sapiens, UniProt P56817). The experiment in a line: In vitro enzymatic BACE FRET assay. In kind it is biochemical. The note with it: read-out: BACE1 FRET assay IC50. The method in brief: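 Readout: dequenched fluorescence (ex 488 nm/[…]) after neutralizing with Tris buffer. Reactions, begun by adding 50 nM quenched peptide substrate spanning the BACE cleavage site, were incubated one hour at pH 4.2 in 0.05 M acetate with 100 uM genapol and 10% final DMSO.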
Sequence of Beta Secretase enzyme (BACE1) (P56817 46-501): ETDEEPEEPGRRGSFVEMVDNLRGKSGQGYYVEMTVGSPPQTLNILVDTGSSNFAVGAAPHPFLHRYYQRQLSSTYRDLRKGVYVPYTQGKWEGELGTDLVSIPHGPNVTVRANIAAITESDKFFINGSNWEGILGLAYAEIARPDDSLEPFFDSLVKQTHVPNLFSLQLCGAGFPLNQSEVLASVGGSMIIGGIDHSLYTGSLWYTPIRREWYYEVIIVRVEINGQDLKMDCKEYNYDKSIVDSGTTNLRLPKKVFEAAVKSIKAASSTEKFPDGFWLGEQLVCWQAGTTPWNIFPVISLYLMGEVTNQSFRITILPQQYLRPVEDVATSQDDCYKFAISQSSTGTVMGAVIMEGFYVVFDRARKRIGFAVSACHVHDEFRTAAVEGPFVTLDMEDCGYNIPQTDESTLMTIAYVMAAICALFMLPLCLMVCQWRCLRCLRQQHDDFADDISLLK

The source of these data is patent US20140107109A1, “AMINO-DIHYDROTHIAZINE AND AMINO-DIOXIDO DIHYDROTHIAZINE COMPOUNDS AS BETA-SECRETASE ANTAGONISTS AND METHODS OF USE” (Amgen Inc., priority 2012, published 2014).

SMILES strings stand for the structures. Read-outs that look alike come from different tables or passages of the source.

T1 sequence (P07339 65-412, species assumed): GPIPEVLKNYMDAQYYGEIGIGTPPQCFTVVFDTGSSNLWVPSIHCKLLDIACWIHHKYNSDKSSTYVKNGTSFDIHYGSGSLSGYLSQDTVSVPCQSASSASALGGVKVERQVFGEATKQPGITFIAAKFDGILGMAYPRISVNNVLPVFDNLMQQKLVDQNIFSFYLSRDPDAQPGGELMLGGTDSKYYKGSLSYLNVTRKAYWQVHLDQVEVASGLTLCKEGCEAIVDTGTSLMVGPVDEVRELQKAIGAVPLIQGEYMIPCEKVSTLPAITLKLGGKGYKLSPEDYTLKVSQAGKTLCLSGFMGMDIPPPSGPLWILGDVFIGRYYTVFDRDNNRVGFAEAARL

As for `C[C@@]1(c2cc(-c3cncnc3)c(F)cc2F)CCSC(N)=N1` [LY2811376, (S)-4-(2,4-difluoro-5-pyrimidin-5-yl-phenyl)-4-methyl-5,6-dihydro-4H-[1,3]thiazin-2-ylamine], the “safety and tolerability in healthy volunteers” value in the data set on Aβ in lumbar CSF was “safe and well tolerated”.

In the case of `COc1cnc(C(=O)Nc2ccc(F)c([C@]34COC[C@H]3S(=O)(=O)C(C)(C)C(N)=N4)c2)c(C)c1` [Example 430, N-(3-((4aS,7aS)-3-amino-2,2-dimethyl-1,1-dioxido-7,7a-dihydro-2H-furo[3,4-b][1,4]thiazin-4a(5H)-yl)-4-fluorophenyl)-5-methoxy-3-methyl-2-pyridinecarboxamide], the IC50 worked out at 144000 nM on Cathepsin D (Cat D) and 11.7 nM in data set [2] (average IC50, cell assay). The “% reduction of rat CSF levels at 10pmk” value in data set [1] (rat CSF) amounted to 31%. Further, the “% reduction of rat brain levels at 10mpk” value in data set [1] (rat brain) was 1%.

Turning to `C[C@@]1(c2cc(-c3cncnc3)c(F)cc2F)CCSC(N)=N1` [LY 2811376], the “eye assessments of Ph I subjects” value in data set [3] is listed as “did not show any abnormalities”. In addition, the rat toxicology finding entry in data set [4] was “damaged the pigment epithelium of the rat's eye”.

Turning to `Cc1cc(Cl)cnc1C(=O)Nc1ccc(F)c([C@]23C[C@H]2S(=O)(=O)C(C)(C)C(N)=N3)c1` [Example 396, N-(3-((1R,6R)-4-amino-3,3-dimethyl-2,2-dioxido-2-thia-5-azabicyclo[4.1.0]hept-4-en-6-yl)-4-fluorophenyl)-5-chloro-3-methyl-2-pyridinecarboxamide], the IC50 stood at 187000 nM at Cathepsin D (Cat D), 2.39 nM in data set [5] and 862 nM in data set [2].

For the compound `COc1ccnc(Oc2ccc(F)c([C@]3(C)CS(=O)(=O)C(C)(C)C(N)=N3)c2)n1` [Example 309, (5R)-5-(2-fluoro-5-((4-methoxy-2-pyrimidinyl)oxy)phenyl)-2,2,5-trimethyl-5,6-dihydro-2H-1,4-thiazin-3-amine 1,1-dioxide], the IC50 at Cathepsin D (Cat D) came to 274000 nM; in data set [5] (average IC50, enzyme assay), 101 nM; in data set [2] (average IC50, HEK cell assay) it was 75.1 nM.

`CC1(c2cc(NC(=O)c3ccc(Cl)cn3)cc(F)c2F)CS(=O)(=O)C(C)(C)C(N)=N1` (stereo not shown) [Example 35, N-(3-(-5-amino-3,6,6-trimethyl-1,1-dioxido-3,6-dihydro-2H-1,4-thiazin-3-yl)-4,5-difluorophenyl)-5-chloro-2-pyridinecarboxamide]: the IC50 at Cathepsin D (Cat D) was determined as 99800 nM; in data set [5] it was 2.7 nM; in data set [2] (Aβ40, 24 h incubation) it was 12.2 nM.

Consider `C[C@@]1(c2cc(NC(=O)c3ccc(Cl)cn3)ccc2F)CS(=O)(=O)CC(N)=N1` [Example 29, N-(3-((3R)-5-amino-3-methyl-1,1-dioxido-3,6-dihydro-2H-1,4-thiazin-3-yl)-4-fluorophenyl)-5-chloro-2-pyridinecarboxamide], for which the IC50 at Cathepsin D (Cat D) worked out at 118000 nM; in data set [5], 6 nM; in data set [2] (Aβ40, 24 h incubation), 10.8 nM.

For the compound `COc1ccc2nc(C(=O)Nc3ccc(F)c([C@]4(CF)CS(=O)(=O)C(C)(C)C(N)=N4)c3)c(C)n2c1` [Example 392, N-(3-((3S)-5-amino-3-(fluoromethyl)-6,6-dimethyl-1,1-dioxido-3,6-dihydro-2H-1,4-thiazin-3-yl)-4-fluorophenyl)-6-methoxy-3-methylimidazo[1,2-a]pyridine-2-carboxamide], the IC50 is 97600 nM on Cathepsin D (Cat D), 104 nM in data set [5] and 823 nM in data set [2].

As to `COc1cnc(C(=O)Nc2ccc(F)c([C@]3(C)CS(=O)(=O)[C@@](C)(F)C(N)=N3)c2)cn1` [Example 30, N-(3-((3R,6R)-5-amino-6-fluoro-3,6-dimethyl-1,1-dioxido-3,6-dihydro-2H-1,4-thiazin-3-yl)-4-fluorophenyl)-5-methoxy-2-pyrazinecarboxamide], the IC50 at Cathepsin D (Cat D) was above 400000 nM; in data set [5], 3.1 nM; in data set [2] (Aβ40, 24 h incubation), 80.1 nM.

As to `Cc1cc(OCC(F)(F)F)cnc1C(=O)Nc1ccc(F)c([C@]2(CF)CS(=O)(=O)C3(CCC3)C(N)=N2)c1` [Example 374, N-(3-((7S)-9-amino-7-(fluoromethyl)-5,5-dioxido-5-thia-8-azaspiro[3.5]non-8-en-7-yl)-4-fluorophenyl)-3-methyl-5-(2,2,2-trifluoroethoxy)-2-pyridinecarboxamide], the IC50 turned out to be 630000 nM on Cathepsin D (Cat D), 1.1 nM in data set [5] and 61.6 nM in data set [2].

Consider `CC#CCOc1cnc2c(Nc3ccc(F)c([C@]4(C)CS(=O)(=O)C(C)(C)C(N)=N4)c3)nccc2c1` [Example 254, N-(3-((3R)-5-amino-3,6,6-trimethyl-1,1-dioxido-3,6-dihydro-2H-1,4-thiazin-3-yl)-4-fluorophenyl)-3-(2-butyn-1-yloxy)-1,7-naphthyridin-8-amine], for which the IC50 is 354000 nM on Cathepsin D (Cat D); 0.6 nM in data set [5] (average IC50, enzyme assay); 0.6 nM in data set [2] (average IC50, cell assay).

In the case of `CC1(C)C(N)=N[C@](C)(c2cc(NC(=O)c3ccc(F)cn3)cnc2F)CS1(=O)=O` [Example 399, N-(5-((3R)-5-amino-3,6,6-trimethyl-1,1-dioxido-3,6-dihydro-2H-1,4-thiazin-3-yl)-6-fluoro-3-pyridinyl)-5-fluoro-2-pyridinecarboxamide], the values for the IC50 (at Cathepsin D (Cat D); in data set [5]; in data set [2]) were 419000 nM, 3.1 nM and 39.3 nM, respectively.

Consider `CC1(C)C(N)=N[C@](C)(c2cc(Nc3ccc4c(c3)OC(F)(F)O4)cnc2F)CS1(=O)=O` [Example 414, (5R)-5-(5-((2,2-difluoro-1,3-benzodioxol-5-yl)amino)-2-fluoro-3-pyridinyl)-2,2,5-trimethyl-5,6-dihydro-2H-1,4-thiazin-3-amine 1,1-dioxide], for which the IC50 on Cathepsin D (Cat D) was 33900 nM; in data set [5], 3200 nM; in data set [2], 2530 nM.

For the compound `COc1cnc2c(Nc3ccc(F)c(C4(CF)CS(=O)(=O)C(C)(C)C(N)=N4)c3)nccc2c1` (stereo not shown) [Example 61, N-(3-(5-amino-3-(fluoromethyl)-6,6-dimethyl-1,1-dioxido-3,6-dihydro-2H-1,4-thiazin-3-yl)-4-fluorophenyl)-3-methoxy-1,7-naphthyridin-8-amine], the IC50 at Cathepsin D (Cat D) is above 400000 nM; in data set [5], 6.5 nM; in data set [2] (Aβ40, 24 h incubation), 31.7 nM.

For `C[C@]1(c2cc(NC(=O)c3ccc(Cl)cn3)ccc2F)N=C(N)C2(CC2)S(=O)(=O)[C@@H]1F` [Example 200, N-(3-((5S,6R)-8-amino-5-fluoro-6-methyl-4,4-dioxido-4-thia-7-azaspiro[2.5]oct-7-en-6-yl)-4-fluorophenyl)-5-chloro-2-pyridinecarboxamide], the IC50 at Cathepsin D (Cat D) was 55600 nM; in data set [5] (average IC50) it was 1.3 nM; in data set [2] (average IC50, HEK cells) it was 3.9 nM.

Turning to `CC1(C)C(N)=N[C@](C)(c2cc(NC(=O)c3cnc(C(F)F)cn3)ccc2F)CS1(=O)=O` [Example 313, N-(3-((3R)-5-amino-3,6,6-trimethyl-1,1-dioxido-3,6-dihydro-2H-1,4-thiazin-3-yl)-4-fluorophenyl)-5-(difluoromethyl)-2-pyrazinecarboxamide], the IC50 came to 887000 nM on Cathepsin D (Cat D); 2.92 nM in data set [5] (average IC50, enzyme assay); 6.3 nM in data set [2] (average IC50, HEK cell assay).

`CCOc1cnc2c(Nc3ccc(F)c([C@]4(C)CS(=O)(=O)C(C)(C)C(N)=N4)c3)nccc2c1` [Example 422, N-(3-((3R)-5-amino-3,6,6-trimethyl-1,1-dioxido-3,6-dihydro-2H-1,4-thiazin-3-yl)-4-fluorophenyl)-3-ethoxy-1,7-naphthyridin-8-amine]: the half-inhibitory concentration (IC50) at Cathepsin D (Cat D) turned out to be 958000 nM; in data set [5] (average IC50, enzyme assay), 18.4 nM; in data set [2] (average IC50, cell assay), 29 nM.
